Reference: the supplement of paper PMC3842684

Key:
[1] = system: P. falciparum NF54-pfs16-GFP late (IV-V) stage gametocytes; details: stage: late (IV-V) gametocyte; incubation 72 h
Procedure: (§1)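 MMV Malaria Box compounds active in the primary screen were retested in dose-response against P. falciparum NF54-pfs16-GFP early (I-III) or late (IV-V) gametocytes, 72 h, 37 C, viable gametocytes counted by confocal imaging; IC50 from an unconstrained 4-parameter fit. Compounds with no plateau have no IC50 and are left out.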

[2] = system: P. falciparum NF54-pfs16-GFP early (I-III) stage gametocytes; details: stage: early (I-III) gametocyte; incubation 72 h
Procedure: as §1

CC(C)CCNCC(O)Cn1c2ccccc2c2ccccc21 (stereo unspecified)
IC50, viable gametocyte number [1]: 1170 nM

Cc1ccc(Nc2nc(-c3ccccn3)cs2)cc1
IC50, viable gametocyte number [2]: 461 nM
IC50, viable gametocyte number [1]: 231 nM

Nc1ccc(-c2nc3cc(Cc4ccc5[nH]c(-c6ccc(N)cc6)nc5c4)ccc3[nH]2)cc1
IC50, viable gametocyte number [1]: 1100 nM

Cn1c(=O)n(C)c2cc(CNCCNc3ccnc4cc(Cl)ccc34)ccc21
IC50, viable gametocyte number [2]: 588 nM

CN1CCN(c2ccc(Nc3c4ccccc4nc4ccccc34)cc2)CC1
IC50, viable gametocyte number [2]: 1110 nM
IC50, viable gametocyte number [1]: 1360 nM

Oc1ccccc1CN1CCN(C(c2ccccc2)c2ccccc2)CC1
IC50, viable gametocyte number [1]: 1320 nM

Oc1ccccc1CNCC12CC3CC(CC(C3)C1)C2
IC50, viable gametocyte number [2]: 891 nM
IC50, viable gametocyte number [1]: 415 nM

CCOC(=O)c1c(NC(=O)c2ccccc2)sc2c(O)c(CN(CC)CC)ccc12
IC50, viable gametocyte number [2]: 810 nM
IC50, viable gametocyte number [1]: 371 nM

CCN(CC)CCNc1ccnc2cc3ccccc3cc12
IC50, viable gametocyte number [2]: 1710 nM

COc1ccc(NC(=O)C2c3ccccc3C(=O)N(CC(C)C)C2c2cccs2)cc1Cl (stereo unspecified)
IC50, viable gametocyte number [1]: 596 nM

CC1=C(CC(=O)c2cccc([N+](=O)[O-])c2)C(=O)c2ccccc2C1=O
IC50, viable gametocyte number [2]: 1160 nM
IC50, viable gametocyte number [1]: 745 nM

COc1ccc(C(=O)C(CCC(CNC(C)(C)C)C(=O)c2ccc(OC)cc2)CNC(C)(C)C)cc1 (stereo unspecified)
IC50, viable gametocyte number [1]: 1090 nM

OCCNc1nc(Nc2ccc(Cl)c(Cl)c2)nc2ccccc12
IC50, viable gametocyte number [1]: 1350 nM

CN(C)c1ccc(C=Cc2nc(=O)c3ccccc3o2)cc1
IC50, viable gametocyte number [1]: 936 nM

Cc1sc2ncnc(Sc3nc4ccccc4[nH]3)c2c1C
IC50, viable gametocyte number [2]: 1140 nM
IC50, viable gametocyte number [1]: 324 nM

CCOc1ccccc1CN1CCc2nc3cc(C(C)(C)C)nn3c(O)c2C1
IC50, viable gametocyte number [1]: 1590 nM

COc1ccc(C=C2SC(Nc3ccc(F)cc3)=NC2=O)c(OC)c1
IC50, viable gametocyte number [1]: 892 nM

COc1ccc(C(C)=O)cc1N1C(=O)C2C(C1=O)C1(c3ccccc3)C(=O)C2(c2ccccc2)C(c2ccc(C)cc2)=C1c1ccc(C)cc1 (stereo unspecified)
IC50, viable gametocyte number [1]: 826 nM

CSc1ccccc1C(=O)Nc1nc(-c2ccccn2)cs1
IC50, viable gametocyte number [1]: 781 nM

Oc1ccc(-c2nc(-c3ccc4oc5ccc(-c6[nH]c(-c7ccc(O)cc7)nc6-c6ccccc6)cc5c4c3)c(-c3ccccc3)[nH]2)cc1
IC50, viable gametocyte number [2]: 699 nM

CN(C)c1ccc(C(O)(c2ccc(N(C)C)cc2)c2ccc(N(C)C)cc2)cc1
IC50, viable gametocyte number [2]: 769 nM
IC50, viable gametocyte number [1]: 315 nM

Cc1cc(Nc2ccc(OCc3ccccc3)cc2)nc2cc(O)ccc12
IC50, viable gametocyte number [1]: 784 nM

Cc1ccc(-c2cc3c(nn2)-c2ccccc2C3=O)cc1
IC50, viable gametocyte number [1]: 603 nM

c1ccc(Cn2c(N=Nc3c(Nc4ccccc4)ccc4ccccc34)nc3ccccc32)cc1
IC50, viable gametocyte number [1]: 184 nM

COc1ccc(C2NCCc3c2[nH]c2ccccc32)cc1CN1CCN(c2ccc(F)cc2)CC1 (stereo unspecified)
IC50, viable gametocyte number [1]: 1170 nM

COc1ccc2c(=O)cc(C(Cl)(Cl)Cl)oc2c1
IC50, viable gametocyte number [2]: 1210 nM

COc1ccc(-c2nc3cc(Cc4ccc5[nH]c(-c6ccc(OC)cc6)nc5c4)ccc3[nH]2)cc1
IC50, viable gametocyte number [2]: 949 nM
IC50, viable gametocyte number [1]: 1110 nM

CCOC(=O)C1=C(C)N=c2sc(=Cc3ccccc3O)c(=O)n2C1c1ccc(OC)c2ccccc12 (stereo unspecified)
IC50, viable gametocyte number [1]: 1080 nM

COc1ccc(C2c3ccc4ccccc4c3Oc3ncn(CCCN(C)C)c(=N)c32)cc1 (stereo unspecified)
IC50, viable gametocyte number [1]: 1060 nM

CCCCCCc1cc2cc(-c3csc(C=Cc4ccccc4)n3)c(=O)oc2cc1O
IC50, viable gametocyte number [2]: 830 nM
IC50, viable gametocyte number [1]: 594 nM

CC(C)(C)c1ccc2c(c1)CN(Cc1ccc(Cl)cc1)CO2
IC50, viable gametocyte number [1]: 920 nM

O=c1cc(NC2CCN(CCCc3ccccc3)CC2)c2cc(Cl)ccc2o1
IC50, viable gametocyte number [2]: 1310 nM

CC1CCCCN1CCCNC(=O)c1ccc2c(c1)sc1nc(-c3ccc(F)cc3)cn12 (stereo unspecified)
IC50, viable gametocyte number [2]: 1790 nM

COc1ccc(-c2nc(N3CCN(C(=O)C4CCCCC4)CC3)c3c4c(sc3n2)CCCC4)cc1
IC50, viable gametocyte number [1]: 1290 nM

CCOC(=O)c1cn(CC)c2cc(N(C)CCc3ccc(OC)c(OC)c3)c(F)cc2c1=O
IC50, viable gametocyte number [1]: 574 nM

CCCCCCc1cc2cc(-c3nc4ccccc4[nH]3)c(=Nc3ccccc3C)oc2cc1O
IC50, viable gametocyte number [2]: 819 nM
IC50, viable gametocyte number [1]: 465 nM

CN(C)CCCNc1c2ccccc2nc2ccccc12
IC50, viable gametocyte number [2]: 1440 nM
IC50, viable gametocyte number [1]: 703 nM

COc1ccc(C(=O)NC(c2ccc(Cl)cc2Cl)c2cc(Cl)c3cccnc3c2O)cc1 (stereo unspecified)
IC50, viable gametocyte number [1]: 1080 nM

OC1=C2C(=Nc3ccccc3SC2c2ccc(Br)cc2)c2ccccc21 (stereo unspecified)
IC50, viable gametocyte number [1]: 875 nM

Cc1cccc(-n2ncc3c(=O)[nH]c(-n4nc(C)cc4NC(=O)c4cc5ccccc5o4)nc32)c1
IC50, viable gametocyte number [1]: 1090 nM

Brc1ccc(Nc2nc3ccccc3nc2Nc2ccc(Br)cc2)cc1
IC50, viable gametocyte number [1]: 948 nM

CC(C)(C)c1ccc(O)c(CNC2CCCCC2)c1
IC50, viable gametocyte number [2]: 712 nM
IC50, viable gametocyte number [1]: 382 nM

COC(=O)c1ccc(C2C3=C(O)CC(c4ccc(F)cc4)CC3=Nc3ccccc3N2C(=O)c2ccccc2)cc1 (stereo unspecified)
IC50, viable gametocyte number [1]: 1130 nM

O=C1c2ccccc2C2=Nc3ccccc3SC(c3cccc(F)c3)C12 (stereo unspecified)
IC50, viable gametocyte number [1]: 733 nM

CCCc1cc(O)c2c3c(c(=O)oc2c1)CN(C)CC3
IC50, viable gametocyte number [1]: 591 nM

COc1ccc(C2=C(c3ccc(OC)cc3)C3(c4ccccc4)C(=O)C2(c2ccccc2)C2C(=O)N(c4ccc(C)cc4)C(=O)C23)cc1 (stereo unspecified)
IC50, viable gametocyte number [1]: 333 nM

COc1cccc(C=Cc2nc(=O)c3ccccc3o2)c1OC
IC50, viable gametocyte number [1]: 438 nM

CCOC(=O)C1=C(C)N=c2sc(=Cc3cc(Cl)ccc3O)c(=O)n2C1c1ccc(OC)cc1 (stereo unspecified)
IC50, viable gametocyte number [2]: 359 nM
IC50, viable gametocyte number [1]: 228 nM

COc1cc2c(cc1OC)C1=NNC(=O)C1=NC(C)(C)C2
IC50, viable gametocyte number [1]: 1040 nM

CCCCCCc1cc(O)c2c3c(c(=O)oc2c1)CCC(C)C3 (stereo unspecified)
IC50, viable gametocyte number [1]: 759 nM

COc1ccc(Nc2nc(NCc3ccccc3)c3ccccc3n2)cc1
IC50, viable gametocyte number [2]: 1480 nM

Cc1ccc2c(C)nc(Nc3nc(C)cc(-c4ccccc4)n3)nc2c1
IC50, viable gametocyte number [1]: 673 nM

FC(F)(F)c1cccc(Nc2nc3ccccc3nc2Nc2cccc(C(F)(F)F)c2)c1
IC50, viable gametocyte number [2]: 1310 nM
IC50, viable gametocyte number [1]: 416 nM

Clc1cc(Br)ccc1-c1ccc(CNCC2CCNCC2)o1
IC50, viable gametocyte number [2]: 824 nM
IC50, viable gametocyte number [1]: 692 nM

CCOC(=O)c1cnc2ccc(CC)cc2c1O
IC50, viable gametocyte number [1]: 253 nM

Cc1ccc(N2C3c4ccccc4N(S(=O)(=O)c4ccc(C)cc4)C2c2ccccc2N3S(=O)(=O)c2ccc(C)cc2)cc1
IC50, viable gametocyte number [2]: 1180 nM
IC50, viable gametocyte number [1]: 208 nM

C=CC12CCN(CC1)C(C(O)c1ccnc3ccc(OC)cc13)C2 (stereo unspecified)
IC50, viable gametocyte number [2]: 823 nM
IC50, viable gametocyte number [1]: 276 nM

OC(CNC1CCCCC1)Cn1c2ccccc2c2ccccc21 (stereo unspecified)
IC50, viable gametocyte number [1]: 897 nM

Oc1ccccc1CN1CCC2(CCCN(Cc3ccccc3F)C2)C1 (stereo unspecified)
IC50, viable gametocyte number [2]: 1360 nM
IC50, viable gametocyte number [1]: 673 nM

CCCOCc1cc(CN2CCN(c3cccc(Cl)c3)CC2)c(O)c2ncccc12
IC50, viable gametocyte number [1]: 584 nM

OC(CNC1CCCCC1)Cn1c2ccc(I)cc2c2cc(I)ccc21 (stereo unspecified)
IC50, viable gametocyte number [2]: 252 nM
IC50, viable gametocyte number [1]: 63 nM

COc1cccc(O)c1CN1CCC2(CCCN(Cc3ccc(F)cc3)C2)C1 (stereo unspecified)
IC50, viable gametocyte number [1]: 899 nM

CCOC(=O)c1cn(CC)c2cc(N3CCCCC3)c(F)cc2c1=O
IC50, viable gametocyte number [1]: 337 nM

CCN(CC)CCn1c(=N)n(CC(O)c2ccc(Cl)c(Cl)c2)c2ccccc21 (stereo unspecified)
IC50, viable gametocyte number [2]: 1440 nM
IC50, viable gametocyte number [1]: 1090 nM

CC1CC2=C(CC1CNCCCN(C)C)C(C)(C)CCC2 (stereo unspecified)
IC50, viable gametocyte number [1]: 541 nM

CCCCCCn1c(=N)n(CC(O)COc2cccc(C)c2)c2ccccc21 (stereo unspecified)
IC50, viable gametocyte number [1]: 1610 nM

CNCCCNc1ccnc2cc(Cl)ccc12
IC50, viable gametocyte number [2]: 274 nM
IC50, viable gametocyte number [1]: 310 nM

CCN(CC)CCNc1ccnc2cc(Cl)ccc12
IC50, viable gametocyte number [2]: 1020 nM

CCc1ccc(Nc2cc(C)c3ccc(O)cc3n2)cc1
IC50, viable gametocyte number [1]: 1270 nM

CSC1=NC(=Nc2c(C)cccc2C)C2(CCC(C(C)(C)C)CC2)N1c1ccc(Cl)cc1 (stereo unspecified)
IC50, viable gametocyte number [1]: 592 nM
